Tests used:
Test in all cases: light-driven cytochrome c2 oxidation at […] nm, steady state
Format in all cases: biochemical
[1] = target: T1, monomeric RC-LH1 core complex (RC3-LH1_14-XY) (Cereibacter sphaeroides, UniProt Q3J1A5+Q3J1A6); conditions: 50 uM ubiquinone-2, 5 uM reduced cytochrome c2, 810 nm LED, pH 8, 0.03% beta-DDM; electron acceptor
T1 construct: gene pufL; native, beta-DDM-solubilised membranes, sucrose gradient monomer band; 1 RC, C-shaped LH1 of 14 subunits; with Reaction center protein M chain; Reaction center protein H chain; Light-harvesting protein B-875 alpha chain; Light-harvesting protein B-875 beta chain; Intrinsic membrane protein PufX; Protein-Y

[2] = target: T1, monomeric RC-LH1 core complex (RC3-LH1_14-XY); conditions: 50 uM ubiquinone-2, 5 uM reduced cytochrome c2, 810 nm LED, pH 8, 0.03% beta-DDM; electron acceptor; 0.05 uM RC-LH1
[3] = target: T2, dimeric RC-LH1 core complex (Cereibacter sphaeroides, UniProt Q3J1A5+Q3J1A6); conditions: 50 uM ubiquinone-2, 5 uM reduced cytochrome c2, 810 nm LED, pH 8, 0.03% beta-DDM; electron acceptor; 0.01 uM RC-LH1
T2 construct: gene pufL; native, beta-DDM-solubilised membranes, sucrose gradient dimer band; 2 RC, S-shaped LH1 of 28 subunits; with Reaction center protein M chain; Reaction center protein H chain; Light-harvesting protein B-875 alpha chain; Light-harvesting protein B-875 beta chain; Intrinsic membrane protein PufX; Protein-Y; Protein-Z

COC1=C(OC)C(=O)C(C/C=C(\C)CCC=C(C)C)=C(C)C1=O [ubiquinone-2]
light-driven cytochrome c2 oxidation at 550 nm, steady state [1]: light-driven oxidation rate of cytochrome c2 by monomeric and dimeric complexes in the presence of ubiquinone-2
light-driven cytochrome c2 oxidation at 550 nm, steady state [2]: Turnover assays for monomeric complexes from WT, PufX R49L R53L, ΔolsBA and ΔsqdB mutants
light-driven cytochrome c2 oxidation at 550 nm, steady state [3]: light-driven oxidation rate of cytochrome c2 by monomeric and dimeric complexes in the presence of ubiquinone-2
